In brackets after ≈: the same amount, converted by molar mass. *1 amine or outer side, *2 acyl side, *3 side chain or, on linkers, in order; H or OH if unused. Where a SMILES comes first, the peptide text is derived from it. [ ]: non-standard residue; d: D form. The star is where a group is joined. X2 = O=C(COC1CCCCCc2c1nnn2[C@@H]1O[C@H](CO)[C@H](O)[C@H](O)[C@H]1O)*; NH(1-deoxy-D-glucityl) = OC[C@@H](O)[C@@H](O)[C@H](O)[C@@H](O)CN*; Dolaproine = CO[C@@H]([C@@H]1CCCN1)[C@@H](C)C(=O)O; X3 = O=C(COC1CCCCCc2c1nnn2CCOCCOCCOCCOCCOCCO)*; Dil = CC[C@H](C)[C@H](NC)[C@@H](CC(=O)O)OC; PABC = O=C(OCc1ccc(N[*:1])cc1)[*:2]; DBCO = C1#Cc2ccccc2N(*)Cc2ccccc21; X1 = C[C@@H](N*)[C@@H](O)c1ccccc1; Cit = NC(=O)NCCC[C@H](N)C(=O)O; PEG4 = NCCOCCOCCOCCOCCC(=O)O; Suc = O=C(CCC(=O)[*:2])[*:1]; NMeV = CN[C@H](C(=O)O)C(C)C
What was measured:
[1] = pH stability in buffers, determined by LC-MS; assay type: physicochemical
Protocol: pH stability was assessed as follows. 0.1 mg of sample was dissolved into 0.2-0.3 mL of DMSO, and the resulting solution was added dropwise into different pH buffers (1 mL) while maintain clear solutions during testing time period. The samples were collected from several time points (e.g., over 72 hours), and pH stability was determined by LC-MS. pH buffer was prepared as follows: pH 8.0 sodium borate buffer: Add 9.534 g Sodium borate decahydrate, 1.461 g Sodium chloride, and 0.393 g DTPA to 900 mL distilled water, make sure all powers dissolve completely, then make final volume to 1 L by adding water. pH 7.4 sodium borate buffer: Add […], 9.534 g Sodium borate decahydrate, 1.461 g Sodium chloride, and 0.393 g DTPA to 900 mL distilled water, make sure all powers dissolve completely, then make final volume to 1 L by adding water. pH 5.0 succinate acid buffer: Add 10 mM succinate acid to 150 mL distilled water, and then change the pH to pH5.0 by adding 0.5M NaOH, then make final volume to 250 mL by adding water. pH 7.4 PBS buffer: commercially available. Stability was assessed at 72 hours by LCMS.

Human liver Cathepsin B = Human liver Cathepsin B (Homo sapiens, UniProt P07858); experiment: Cathepsin B cleavage assay of linker-payloads
Protocol: For the assay, the linker-payload stock solution (10 mM of linker-payload in DMSO) was added into a solution of 100 mM NaOAc, 10 mM dithiothreitol, at pH5 to obtain a 50 μM substrate solution. […] The Cathepsin B and substrate solution was mixed with and without 10 mM of a Cathepsin B inhibitor (CA074; APE Bio, Cat #A1926), and incubated at 37° C. for 4 hours. Following the 4 hour incubation, acetic acid and then acetonitrile were added to stop the reaction. The quenched samples then underwent centrifugation at 14,000 rpm. Aliquots of the resultant supernatants were then diluted with equal volume of water and analyzed by LC/MS to determine the amount of payload released.

[2] = Solubility test in water, LCMS against standard curve; settings: Solubility (mg/mL), in water
Protocol: (§1) The DMSO solution (1 mg/mL, 0.5 mL) was diluted with water (4.5 mL) to generate solution A (0.1 mg/mL, 5 mL, 0.5 mg). Solution A (0.1 mg/mL, 0.5 mL) was diluted with water (4.5 mL) to generate solution B (0.01 mg/mL, 5 mL, 0.05 mg). Solution B (0.01 mg/mL, 0.5 mL) was diluted with water (4.5 mL) to generate solution C (1 μg/mL, 5 mL, 5 μg). Solution C (1 μg/mL, 0.5 mL) was diluted with water (4.5 mL) to generate solution D (0.1 μg/mL, 5 mL, 0.5 μg). The testing sample (0.05 mg) was suspended in water (1 mL), and was sonicated for 5-30 min to dissolve the sample. If no clear solution was observed, the resulting suspension was centrifuged and the clear supernatant solution was collected for analysis. All the standard solutions A, B, C, D and sample solutions were tested using same method on the same LC-MS instrument. Solubility was assessed by LCMS and calculated based on a standard curve.

[3] = pH7.4 and 8 buffer, RT, Table 3-1
[4] = pH7.4 or 8 buffer, room temperature, Table 3

Protocol for physchem: as §1

For `CCCC1O[C@@H]2C[C@H]3[C@@H]4C[C@H](F)C5=CC(=O)C=C[C@]5(C)[C@@]4(F)[C@@H](O)C[C@]3(C)[C@]2(C(=O)CNC(=O)OCc2ccc(NC(=O)[C@H](CCCNC(N)=O)NC(=O)[C@@H](NC(=O)[C@@H](CCCCNC(=O)COC3CCCCCc4c3nnn4CCOCCOCCOCCOCCC(=O)NCCS(=O)(=O)O)NC(=O)CCOCCOCCOCCOCCNC(=O)CCC(=O)N3Cc4ccccc4C#Cc4ccccc43)C(C)C)cc2)O1` (some centres unmarked) [1e], the “pH Stability” value [1, 3] was “Y (stable in pH7.4 and 8 buffer at RT for more than 3 days)”, the “pH Stability” value [1, 4] was “Y (stable in pH7.4 or 8 buffer at room temperature for more than 3 days)” and the “CapB cleavage rate (%) at 4 hrs” value (Human liver Cathepsin B; Table 1C) was 79.6%. For the same compound, the “CapB cleavage rate (%) at 4 hrs” value (Human liver Cathepsin B; Table 1D) was 79.6%, the solubility ([2]; Table 3) was > 10000 µg/mL and the solubility ([2]; Table 3-1) was > 10000 µg/mL.

In the case of `CC[C@H](C)[C@@H]([C@@H](CC(=O)N1CCC[C@H]1[C@H](OC)[C@@H](C)C(=O)N[C@H](C)[C@@H](O)c1ccccc1)OC)N(C)C(=O)[C@@H](NC(=O)[C@H](C(C)C)N(C)C(=O)OCc1ccc(NC(=O)[C@H](CCCNC(N)=O)NC(=O)[C@@H](NC(=O)[C@@H](CCCCNC(=O)COC2CCCCCc3c2nnn3CCOCCOCCOCCOCCOCCP(=O)(O)O)NC(=O)CCOCCOCCOCCOCCNC(=O)CCC(=O)N2Cc3ccccc3C#Cc3ccccc32)C(C)C)cc1)C(C)C` (some centres unmarked), the “pH Stability” value [1, 3] is reported as “Y (stable in pH7.4 and 8 buffer at RT for more than 3 days)”, the “CapB cleavage rate (%) at 4 hrs” value (Human liver Cathepsin B; Table 1D) is reported as 50% and the solubility ([2]; Table 3-1) is reported as 250 µg/mL (≈ 108 µM).

With `CCCC1O[C@@H]2C[C@H]3[C@@H]4C[C@H](F)C5=CC(=O)C=C[C@]5(C)[C@@]4(F)[C@@H](O)C[C@]3(C)[C@]2(C(=O)CNC(=O)OCc2ccc(NC(=O)[C@H](CCCNC(N)=O)NC(=O)[C@@H](NC(=O)CCOCCOCCOCCOCCNC(=O)CCC(=O)N3Cc4ccccc4C#Cc4ccccc43)C(C)C)cc2)O1` (some centres unmarked) [10a] the “pH Stability” value [1, 3] was “Y (stable in pH7.4 and 8 buffer at RT for more than 3 days)”, the “CapB cleavage rate (%) at 4 hrs” value (Human liver Cathepsin B; Table 1D) was 18.6% and the solubility ([2]; Table 3-1) was 20 µg/mL (≈ 14.2 µM).

With `CCCC1O[C@@H]2C[C@H]3[C@@H]4C[C@H](F)C5=CC(=O)C=C[C@]5(C)[C@@]4(F)[C@@H](O)C[C@]3(C)[C@]2(C(=O)COc2ccc(NC(=O)[C@H](C)NC(=O)[C@@H](NC(=O)[C@@H](CCCCNC(=O)COC3CCCCCc4c3nnn4CCOCCOCCOCCOCCC(=O)NCCS(=O)(=O)O)NC(=O)CCOCCOCCOCCOCCNC(=O)CCC(=O)N3Cc4ccccc4C#Cc4ccccc43)C(C)C)cc2)O1` (some centres unmarked) [1j] the “pH Stability” value [1, 3] was “Y (stable in pH7.4 and 8 buffer at RT for more than 3 days)”, the “pH Stability” value [1, 4] was “Y (stable in pH7.4 or 8 buffer at room temperature for more than 3 days)” and the “CapB cleavage rate (%) at 4 hrs” value (Human liver Cathepsin B; Table 1C) was 30.8%. For the same compound, the “CapB cleavage rate (%) at 4 hrs” value (Human liver Cathepsin B; Table 1D) was 30.8%, the solubility ([2]; Table 3) was > 10000 µg/mL and the solubility ([2]; Table 3-1) was > 10000 µg/mL.

In the case of `CC[C@H](C)[C@@H]([C@@H](CC(=O)N1CCC[C@H]1[C@H](OC)[C@@H](C)C(=O)N[C@H](C)[C@@H](O)c1ccccc1)OC)N(C)C(=O)[C@@H](NC(=O)[C@H](C(C)C)N(C)C(=O)OCc1ccc(NC(=O)[C@H](CCCNC(N)=O)NC(=O)[C@@H](NC(=O)[C@@H](CCCCNC(=O)COC2CCCCCc3c2nnn3CCOCCOCCOCCOCCOCCO)NC(=O)CCOCCOCCOCCOCCNC(=O)CCC(=O)N2Cc3ccccc3C#Cc3ccccc32)C(C)C)cc1)C(C)C` (some centres unmarked) [1a] ({DBCO-Suc-PEG4}-[dK](X3)V[Cit][PABC][NMeV]V[Dil][Dolaproine]-X1), the “pH Stability” value [1, 3] is reported as “Y (stable in pH7.4 and 8 buffer at RT for more than 3 days)” and the solubility (physchem) is reported as 170 µg/mL (≈ 75.3 µM).

With `CCCC1O[C@@H]2C[C@H]3[C@@H]4C[C@H](F)C5=CC(=O)C=C[C@]5(C)[C@@]4(F)[C@@H](O)C[C@]3(C)[C@]2(C(=O)COc2ccc(NC(=O)OCc3ccc(NC(=O)[C@H](CCCNC(N)=O)NC(=O)[C@@H](NC(=O)CCOCCOCCOCCOCCNC(=O)CCC(=O)N4Cc5ccccc5C#Cc5ccccc54)C(C)C)cc3)cc2)O1` (some centres unmarked) [10c] the “pH Stability” value [1, 3] was “Y (stable in pH7.4 and 8 buffer at RT for more than 3 days)”, the solubility (physchem; Solubility) was < 10 µg/mL and the solubility (physchem; Solubility (mg/mL)) was < 100 µg/mL. For the same compound, the “CapB cleavage rate (%) at 4 hrs” value (Human liver Cathepsin B; Table 1D) was <5%.

With `CCCC1O[C@@H]2C[C@H]3[C@@H]4C[C@H](F)C5=CC(=O)C=C[C@]5(C)[C@@]4(F)[C@@H](O)C[C@]3(C)[C@]2(C(=O)COc2ccc(NC(=O)[C@H](CCCNC(N)=O)NC(=O)[C@@H](NC(=O)[C@@H](CCCCNC(=O)COC3CCCCCc4c3nnn4CCOCCOCCOCCOCCC(=O)NCCS(=O)(=O)O)NC(=O)CCOCCOCCOCCOCCNC(=O)CCC(=O)N3Cc4ccccc4C#Cc4ccccc43)C(C)C)cc2)O1` (some centres unmarked) [1k] the “pH Stability” value [1, 3] was “Y (stable in pH7.4 and 8 buffer at RT for more than 3 days)”, the “pH Stability” value [1, 4] was “Y (stable in pH7.4 or 8 buffer at room temperature for more than 3 days)” and the “CapB cleavage rate (%) at 4 hrs” value (Human liver Cathepsin B; Table 1C) was 31.0%. The “CapB cleavage rate (%) at 4 hrs” value (Human liver Cathepsin B; Table 1D) was 31.0%, the solubility ([2]; Table 3) was > 1000 µg/mL and the solubility ([2]; Table 3-1) was > 1000 µg/mL.

With `CC[C@H](C)[C@@H]([C@@H](CC(=O)N1CCC[C@H]1[C@H](OC)[C@@H](C)C(=O)N[C@H](C)[C@@H](O)c1ccccc1)OC)N(C)C(=O)[C@@H](NC(=O)[C@H](C(C)C)N(C)C(=O)OCc1ccc(NC(=O)[C@H](CCCNC(N)=O)NC(=O)[C@@H](NC(=O)[C@@H](CCC(=O)NC[C@H](O)[C@@H](O)[C@H](O)[C@H](O)CO)NC(=O)CCOCCOCCOCCOCCNC(=O)CCC(=O)N2Cc3ccccc3C#Cc3ccccc32)C(C)C)cc1)C(C)C` [Ig] ({DBCO-Suc-PEG4}-[dE](NH(1-deoxy-D-glucityl))V[Cit][PABC][NMeV]V[Dil][Dolaproine]-X1) the “pH Stability” value [1, 3] was “Y (stable in pH7.4 and 8 buffer at RT for more than 3 days)”, the solubility (physchem) was 280 µg/mL (≈ 144 µM) and the “CapB cleavage rate (%) at 4 hrs” value (Human liver Cathepsin B; Table 1D) was 70%.

With `CC[C@H](C)[C@@H]([C@@H](CC(=O)N1CCC[C@H]1[C@H](OC)[C@@H](C)C(=O)N[C@H](C)[C@@H](O)c1ccccc1)OC)N(C)C(=O)[C@@H](NC(=O)[C@H](C(C)C)N(C)C(=O)OCc1ccc(NC(=O)[C@H](CCCNC(N)=O)NC(=O)[C@@H](NC(=O)[C@@H](CCCCNC(=O)COC2CCCCCc3c2nnn3[C@@H]2O[C@H](CO)[C@H](O)[C@H](O)[C@H]2O)NC(=O)CCOCCOCCOCCOCCNC(=O)CCC(=O)N2Cc3ccccc3C#Cc3ccccc32)C(C)C)cc1)C(C)C` (some centres unmarked) [Ie-1] ({DBCO-Suc-PEG4}-[dK](X2)V[Cit][PABC][NMeV]V[Dil][Dolaproine]-X1) the “pH Stability” value [1, 3] was “Y (stable in pH7.4 and 8 buffer at RT for more than 3 days)”, the solubility (physchem) was 400 µg/mL (≈ 186 µM) and the “CapB cleavage rate (%) at 4 hrs” value (Human liver Cathepsin B; Table 1D) was 72%.

With `CC[C@H](C)[C@@H]([C@@H](CC(=O)N1CCC[C@H]1[C@H](OC)[C@@H](C)C(=O)N[C@H](C)[C@@H](O)c1ccccc1)OC)N(C)C(=O)[C@@H](NC(=O)[C@H](C(C)C)N(C)C(=O)OCc1ccc(NC(=O)[C@H](CCCNC(N)=O)NC(=O)[C@@H](NC(=O)CCOCCOCCOCCOCCNC(=O)CCC(=O)N2Cc3ccccc3C#Cc3ccccc32)C(C)C)cc1)C(C)C` [10d] ({DBCO-Suc-PEG4}-V[Cit][PABC][NMeV]V[Dil][Dolaproine]-X1) the “pH Stability” value [1, 3] was “Y (stable in pH7.4 and 8 buffer at RT for more than 3 days)” and the solubility (physchem) was < 100 µg/mL.

— patent publication US20240408223A1 (REGENERON PHARMACEUTICALS, INC., priority 2017, published 2024)
